Results as given in ChEMBL document CHEMBL3414470, “Synthesis and biological evaluation of 4-oxycoumarin derivatives as a new class of antifilarial agents” (Eur J Med Chem, 2015).
In brackets after ≈: the same amount, converted by molar mass. Activity calls are given as the source filed them. No cut-off for these calls is given here.

Assays:
[1] = test system: Brugia malayi; assay: Antifilarial activity against Brugia malayi adult worm assessed as reduction in motility at 8.9 uM after 5 days by MTT dye reduction assay; type: functional, organism-based
[2] = test system: Brugia malayi; assay: Antifilarial activity against Brugia malayi adult worm assessed as reduction in motility at 4.45 uM after 5 days by MTT dye reduction assay; type: functional, organism-based
[3] = test system: Brugia malayi; assay: Antifilarial activity against Brugia malayi adult worm assessed as reduction in motility at 2.17 uM after 5 days by MTT dye reduction assay; type: functional, organism-based
[4] = test system: Brugia malayi; assay: Antifilarial activity against Brugia malayi adult worm assessed as reduction in motility at 1.12 uM after 5 days by MTT dye reduction assay; type: functional, organism-based
[5] = test system: Brugia malayi; assay: Antifilarial activity against Brugia malayi microfilaria assessed as reduction in motility at 8.9 uM after 5 days by MTT dye reduction assay; type: functional, organism-based
[6] = test system: Brugia malayi; assay: Antifilarial activity against Brugia malayi microfilaria assessed as reduction in motility at 4.45 uM after 5 days by MTT dye reduction assay; type: functional, organism-based
[7] = test system: Brugia malayi; assay: Antifilarial activity against Brugia malayi microfilaria assessed as reduction in motility at 2.17 uM after 5 days by MTT dye reduction assay; type: functional, organism-based
[8] = test system: Brugia malayi; assay: Antifilarial activity against Brugia malayi microfilaria assessed as reduction in motility at 1.12 uM after 5 days by MTT dye reduction assay; type: functional, organism-based
[9] = test system: Brugia malayi; assay: Antifilarial activity against Brugia malayi adult worm assessed as reduction in motility after 5 days by MTT dye reduction assay; type: functional, organism-based
[10] = test system: Vero; assay: (§1) Selectivity index, ratio of CC50 for African green monkey Vero cells to IC50 for Brugia malayi adult worm; type: functional
[11] = test system: Brugia malayi; assay: Antifilarial activity against Brugia malayi microfilaria assessed as reduction in motility after 5 days by MTT dye reduction assay; type: functional, organism-based
[12] = test system: Vero; assay: (§2) Selectivity index, ratio of CC50 for African green monkey Vero cells to IC50 for Brugia malayi microfilaria; type: functional
[13] = test system: Brugia malayi; assay: Antifilarial activity against Brugia malayi adult worm assessed as reduction in motility at 5 uM after 5 days by MTT dye reduction assay; type: functional; conditions: 120 h
[14] = test system: Brugia malayi; assay: Antifilarial activity against Brugia malayi adult worm assessed as reduction in motility at 2.5 uM after 5 days by MTT dye reduction assay; type: functional; conditions: 120 h
[15] = test system: Brugia malayi; assay: Antifilarial activity against Brugia malayi adult worm assessed as reduction in motility at 1.25 uM after 5 days by MTT dye reduction assay; type: functional; conditions: 120 h
[16] = test system: Brugia malayi; assay: Antifilarial activity against Brugia malayi adult worm assessed as reduction in motility at 0.625 uM after 5 days by MTT dye reduction assay; type: functional; conditions: 120 h
[17] = test system: Brugia malayi; assay: Antifilarial activity against Brugia malayi adult worm assessed as reduction in motility at 0.312 uM after 5 days by MTT dye reduction assay; type: functional; conditions: 120 h
[18] = test system: Brugia malayi; assay: Antifilarial activity against Brugia malayi microfilaria assessed as reduction in motility at 5 uM after 5 days by MTT dye reduction assay; type: functional; conditions: 120 h
[19] = test system: Brugia malayi; assay: Antifilarial activity against Brugia malayi microfilaria assessed as reduction in motility at 2.5 uM after 5 days by MTT dye reduction assay; type: functional; conditions: 120 h
[20] = test system: Brugia malayi; assay: Antifilarial activity against Brugia malayi microfilaria assessed as reduction in motility at 1.25 uM after 5 days by MTT dye reduction assay; type: functional; conditions: 120 h
[21] = test system: Brugia malayi; assay: Antifilarial activity against Brugia malayi microfilaria assessed as reduction in motility at 0.625 uM after 5 days by MTT dye reduction assay; type: functional; conditions: 120 h
[22] = test system: Brugia malayi; assay: Antifilarial activity against Brugia malayi microfilaria assessed as reduction in motility at 0.312 uM after 5 days by MTT dye reduction assay; type: functional; conditions: 120 h
[23] = as §1; type: functional
[24] = as §2; type: functional
[25] = Cytotoxicity against African green monkey Vero cells after 72 hrs by resazurin dye-based fluorescence assay; type: cell-based; conditions: chlorocebus sabaeus, Vero cells
[26] = test system: Brugia malayi; assay: Antifilarial activity against Brugia malayi adult worm infected in jird model assessed as adulticidal activity at 100 mg/kg, sc after 5 days measured till day 45 relative to control; type: functional; conditions: route subcutaneous
[27] = test system: Brugia malayi; assay: Antifilarial activity against Brugia malayi adult worm infected in jird model assessed as sterile female at 100 mg/kg, sc after 5 days measured till day 45 relative to control; type: functional; conditions: route subcutaneous
[28] = test system: Brugia malayi; assay: Antifilarial activity against Brugia malayi microfilariae infected in jird model assessed as microfilaricidal activity at 100 mg/kg, sc after 5 days measured till day 45 relative to control; type: functional; conditions: route subcutaneous
[29] = test system: Brugia malayi; assay: Antifilarial activity against Brugia malayi adult worm assessed as reduction in motility at 0.156 uM after 5 days by MTT dye reduction assay; type: functional; conditions: 120 h
[30] = test system: Brugia malayi; assay: Antifilarial activity against Brugia malayi adult worm assessed as reduction in motility at 0.078 uM after 5 days by MTT dye reduction assay; type: functional; conditions: 120 h
[31] = test system: Brugia malayi; assay: Antifilarial activity against Brugia malayi adult worm assessed as reduction in motility at 0.039 uM after 5 days by MTT dye reduction assay; type: functional; conditions: 120 h
[32] = test system: Brugia malayi; assay: Antifilarial activity against Brugia malayi adult worm assessed as reduction in motility at 0.019 uM after 5 days by MTT dye reduction assay; type: functional; conditions: 120 h
[33] = test system: Brugia malayi; assay: Antifilarial activity against Brugia malayi microfilaria assessed as reduction in motility at 0.156 uM after 5 days by MTT dye reduction assay; type: functional; conditions: 120 h
[34] = test system: Brugia malayi; assay: Antifilarial activity against Brugia malayi microfilaria assessed as reduction in motility at 0.078 uM after 5 days by MTT dye reduction assay; type: functional; conditions: 120 h
[35] = test system: Brugia malayi; assay: Antifilarial activity against Brugia malayi microfilaria assessed as reduction in motility at 0.039 uM after 5 days by MTT dye reduction assay; type: functional; conditions: 120 h
[36] = test system: Brugia malayi; assay: Antifilarial activity against Brugia malayi microfilaria assessed as reduction in motility at 0.019 uM after 5 days by MTT dye reduction assay; type: functional; conditions: 120 h
[37] = test system: Brugia malayi; assay: Antifilarial activity against Brugia malayi adult worm assessed as reduction in motility at 0.19 uM after 5 days by MTT dye reduction assay; type: functional; conditions: 120 h
[38] = test system: Brugia malayi; assay: Antifilarial activity against Brugia malayi microfilaria assessed as reduction in motility at 0.19 uM after 5 days by MTT dye reduction assay; type: functional; conditions: 120 h
[39] = test system: Brugia malayi; assay: Antifilarial activity against Brugia malayi adult worm assessed as reduction in motility at 10 uM after 5 days by MTT dye reduction assay; type: functional, organism-based
[40] = test system: Brugia malayi; assay: Antifilarial activity against Brugia malayi microfilaria assessed as reduction in motility at 10 uM after 5 days by MTT dye reduction assay; type: functional, organism-based

Compound	inhibition at 5 µM [13] [%]	inhibition at 2.5 µM [14] [%]	inhibition at 1.25 µM [15] [%]	inhibition at 0.625 µM [16] [%]	inhibition at 0.312 µM [17] [%]	inhibition at 5 µM [18] [%]	inhibition at 2.5 µM [19] [%]	inhibition at 1.25 µM [20] [%]	inhibition at 0.625 µM [21] [%]	inhibition at 0.312 µM [22] [%]	IC50 ([9]; Brugia malayi, 120 h) [nM]	MIC ([9]; Brugia malayi, 120 h) [µM]	Ratio CC50/IC50 [23]	IC50 ([11]; Brugia malayi, 120 h) [nM]	MIC ([11]; Brugia malayi, 120 h) [µM]	Ratio CC50/IC50 [24]	CC50 at 72 h [25] [nM]	Activity [26] [%]	Activity [27] [%]	Activity [28] [%]	further results
IVERMECTIN																					inhibition [1]: 61.2%; inhibition [2]: 35.3%; inhibition [3]: 21.6%; inhibition [4]: 17.7%; inhibition [5]: 0%; inhibition [6]: 1%; inhibition [7]: 1%; inhibition [8]: 50%; MIC [9]: 8.9 µM; Ratio CC50/IC50 [10]: 29.5; MIC [11]: 10 µM; Ratio CC50/IC50 [12]: 13.3
CN1CCN(CC(O)COc2cc(=O)oc3ccccc23)CC1 (stereo not drawn)	85.6	45.8	38.7	29.8	11.8	100	75	75	75	75	1730	5 (≈ 1.59 µg/mL)	>57.8	280	2.5 (≈ 0.796 µg/mL)	>357.14	> 100000	44.4	0	30.4	
CCCCCCCC/C=C/CCCCCCCCNCC(O)COc1cc(=O)oc2ccccc12 (stereo not drawn)					90.4					100	94	0.31 (≈ 0.151 µg/mL)	>1063	13	0.31 (≈ 0.151 µg/mL)	>7692	> 100000	69.4	16.6	50.9	inhibition at 0.156 µM [29]: 45%; inhibition at 0.078 µM [30]: 42%; inhibition at 0.039 µM [31]: 10.2%; inhibition at 0.019 µM [32]: 8.5%; inhibition at 0.156 µM [33]: 75%; inhibition at 0.078 µM [34]: 75%; inhibition at 0.039 µM [35]: 50%; inhibition at 0.019 µM [36]: 50%
O=c1cc(OCC(O)CNC2CC2)c2ccccc2o1 (stereo not drawn)	97.5	56.4	43.7	34.3		100	75	75	75		880	5 (≈ 1.38 µg/mL)	>113.6	380	2.5 (≈ 0.688 µg/mL)	>263.15	> 100000	52.8	0	31.4	
CCCCNCC(O)COc1cc(=O)oc2ccccc12 (stereo not drawn)		84.9	52.4	48.9	46.9		100	75	50	1	690	2.5 (≈ 0.728 µg/mL)	>144.9	430	2.5 (≈ 0.728 µg/mL)	>232.5	> 100000				inhibition at 0.19 µM [37]: 8.9%; inhibition at 0.19 µM [38]: 1%
O=C(O)CCCNCC(O)COc1cc(=O)oc2ccccc12 (stereo not drawn)	17.5					1															Activity [39]: inactive; Activity [40]: inactive; MIC [9]: inactive; MIC [11]: inactive
